Assays:
[1] = tested on: mTORC1 over mTORC2; assay: mTORC1 selectivity over mTORC2 at 24 hrs (Western blot based pS6K1 and pAKT assay); type: cell-based; conditions: 24 hrs
Experimental: Western Blot Based pS6K1 and pAKT Assay at 24 and 48 Hour Timepoints
1. Seed six well plate with 500,000 PC3 cells per well and incubate for 20˜24 hour.
2. Add compounds into the cell plate. Incubate for 24 to 48 hours.
4. Plate is placed on ice and the media is removed via aspiration. The wells are washed with 1 mL of 1× PBS and then fully aspirated.
5. 110 μL of 1% Triton Lysis Buffer is added and each well is scraped vigorously.
6. Cell homogenates are transferred to 1.5 mL eppendorf tubes on ice and spun down at 4° C. for 10 minutes at 10,000 rpm.
9. The membranes were washed 3× with TBS-T with a 5 minute incubation between each wash then incubated with secondary antibody (LiCor IRDye 800 Donkey Anti Rabbit) for at least 30 minutes.
10. The membranes were washed 3× with TBS-T with a 5 minute incubation between each wash.
11. The gels were then incubated for 5 minutes with PBS at room temperature then imaged using a Li-Cor.
“N/A” stands for “not assayed.”

[2] = tested on: pS6K1 (p-p70 S6 Kinase (Thr389)) in MCF-7 cells; assay: AlphaLISA Ultra pS6K1 Assay; type: cell-based; conditions: Homo sapiens, 1.5 h; MCF7 cells, 90 min
Experimental: AlphaLISA Ultra pS6K1 Assay
1. Seed MCF-7 cells in Corning 3701 plate and incubate for 20˜24 hour. 12,000˜16,000 cells will be seeded in 36 μL medium per well.
2. Change the culture medium with fresh medium and incubate for another 2 hours.
3. Add 12 μL (4×) compounds into the cell plate by HAMILTON. Final DMSO concentration is 0.5%. Incubate for 90 minutes.
4. Aspirate […] by HAMILTON, 10 μL rest per well.
5. Add 10 μL 2× lysis buffer using HAMILTON; total volume in wells is 20 μL. Allow cells to shake for 30 min. Cover plate by plastic foil and store plate at −80° C. up to analysis.
6. Thaw cell lysate at RT and transfer 10 μL lysate to assay plate (Optiplate-384).
7. Add 5 μL acceptor beads into assay plate and incubation for 2 hours
8. Add 5 μL donor beads and incubation for 2 hours
9. Count the plate by EnSpire Multimode Plate Reader

Structure (SMILES) | IC50 [2] | mTORC1 selective @ 24 hrs [1]
CO[C@@H]1C[C@H](C[C@@H](C)[C@@H]2CC(=O)[C@H](C)/C=C(\C)[C@@H](O)[C@@H](OC)C(=O)[C@H](C)C[C@H](C)/C=C/C=C/C=C(\C)[C@H](OCC(CO)CO)C[C@@H]3CC[C@@H](C)[C@@](O)(O3)C(=O)C(=O)N3CCCC[C@H]3C(=O)O2)CC[C@H]1O [I-4] | 0.1 to 1 nM | YES
CNC(=O)CCCO[C@@H]1C[C@@H]2CC[C@@H](C)[C@@](O)(O2)C(=O)C(=O)N2CCCC[C@H]2C(=O)O[C@H]([C@H](C)C[C@@H]2CC[C@@H](OCCO)[C@H](OC)C2)CC(=O)[C@H](C)/C=C(\C)[C@@H](O)[C@@H](OC)C(=O)[C@H](C)C[C@H](C)/C=C/C=C/C=C/1C [I-59, 4-[[(22E,24E,26E,27E,34R,35S,36R,37R,39S,41S,43R,44S,45R,46R,56R)-45, 56-dihydroxy-44-[(1R)-2-[(1S,3R,4R)-4-(2-hydroxyethoxy)-3-methoxy-cyclohexyl]-1-methyl-ethyl]-46-methoxy-34, 35,36,37,47,48-hexamethyl-49,50,51,52,53-pentaoxo-68,69-dioxa-58-azatricyclohexatriaconta-22, 24,26(47),27(48)-tetraen-43-yl]oxy]-N-methyl-butanamide] | ≥ 100 nM | YES
CNC(=O)CCCO[C@H]1C[C@@H]2CC[C@@H](C)[C@@](O)(O2)C(=O)C(=O)N2CCCC[C@H]2C(=O)O[C@H]([C@H](C)C[C@@H]2CC[C@@H](OCCO)[C@H](OC)C2)CC(=O)[C@H](C)/C=C(\C)[C@@H](O)[C@@H](OC)C(=O)[C@H](C)C[C@H](C)/C=C/C=C/C=C/1C [I-60, 4-[[(22E, 24E,26E,27E,34R,35S,36R,37R,39S,41S,43S,44S,45R,46R,56R)-45, 56-dihydroxy-44-[(1R)-2-[(1S,3R,4R)-4-(2-hydroxyethoxy)-3-methoxy-cyclohexyl]-1-methyl-ethyl]-46-methoxy-34, 35,36,37,47,48-hexamethyl-49,50,51,52,53-pentaoxo-68,69-dioxa-58-azatricyclohexatriaconta-22, 24,26(47),27(48)-tetraen-43-yl]oxy]-N-methyl-butanamide] | 1 to 10 nM | YES
CO[C@@H]1C[C@H](C[C@@H](C)[C@@H]2CC(=O)[C@H](C)/C=C(\C)[C@@H](O)[C@@H](OC)C(=O)[C@H](C)C[C@H](C)/C=C/C=C/C=C(\C)[C@H](OCCCC(=O)N(C)C)C[C@@H]3CC[C@@H](C)[C@@](O)(O3)C(=O)C(=O)N3CCCC[C@H]3C(=O)O2)CC[C@H]1OCCO [I-61, 4-[[(23E,25E,27E,28E,35R,36S,37R,38R,40S,42S,44R,45S,46R,47R,57R)-46, 57-dihydroxy-45-[(1R)-2-[(1S,3R,4R)-4-(2-hydroxyethoxy)-3-methoxy-cyclohexyl]-1-methyl-ethyl]-47-methoxy-35, 36,37,38,48,49-hexamethyl-50,51,52,53,54-pentaoxo-69,70-dioxa-58-azatricyclohexatriaconta-23, 25,27(48),28(49)-tetraen-44-yl]oxy]-N,N-dimethyl-butanamide] | 1 to 10 nM | YES
CNC(=O)CCCOC1C[C@@H]2CC[C@@H](C)[C@@](O)(O2)C(=O)C(=O)N2CCCC[C@H]2C(=O)OC([C@H](C)CC2CC[C@@H](OCCO)[C@H](OC)C2)CC(=O)[C@H](C)/C=C(\C)[C@@H](O)[C@@H](OC)C(=O)[C@H](C)C[C@H](C)/C=C/C=C/C=C/1C (stereo partly drawn) [I-68, 4-[[(22E,24E,26E,27E,34R,35S,36R,37R,39S,41S,44S,45R,46R, 56R)-45,56-dihydroxy-44-[(1R)-2-[(1S,3R,4R)-4-(2-hydroxyethoxy)-3-methoxy-cyclohexyl]-1-methyl-ethyl]-46-methoxy-34, 35,36,37,47,48-hexamethyl-49,50,51,52,53-pentaoxo-68,69-dioxa-58-azatricyclohexatriaconta-22, 24,26(47),27(48)-tetraen-43-yl]oxy]-N-methyl-butanamide] | 1 to 10 nM | YES
CO[C@@H]1C[C@H](C[C@@H](C)[C@@H]2CC(=O)[C@H](C)/C=C(\C)[C@@H](O)[C@@H](OC)C(=O)[C@H](C)C[C@H](C)/C=C/C=C/C=C(\C)[C@@H](OCCS(=O)(=O)CCS(=O)(=O)CCO)C[C@@H]3CC[C@@H](C)[C@@](O)(O3)C(=O)C(=O)N3CCCC[C@H]3C(=O)O2)CC[C@H]1O [I-95, (21E,23E,25E,26E,34R,35S,36R,37R,39S,41S,43S,44S,45R,46R,55R)-45, 55-dihydroxy-43-[2-[2-(2-hydroxyethylsulfonyl)ethylsulfonyl]ethoxy]-44-[(1R)-2-[(1S,3R, 4R)-4-hydroxy-3-methoxy-cyclohexyl]-1-methyl-ethyl]-46-methoxy-34,35,36,37,47,48-hexamethyl-70, 71-dioxa-56-azatricyclohexatriaconta-21,23,25(47),26(48)-tetraene-49, 50,51,52,53-pentone] |  | YES

More lines, main results first:

IC50 [2] | Structure (SMILES) | mTORC1 selective @ 24 hrs [1]
0.1 to 1 nM | CO[C@@H]1CC(C[C@@H](C)C2CC(=O)[C@H](C)/C=C(\C)[C@@H](O)[C@@H](OC)C(=O)[C@H](C)C[C@H](C)/C=C/C=C/C=C(\C)C(OCCCC(=O)N(C)C)C[C@@H]3CC[C@@H](C)[C@@](O)(O3)C(=O)C(=O)N3CCCC[C@H]3C(=O)O2)CC[C@H]1OCCO (stereo partly drawn) [I-69, 4-[[(23E, 25E,27E,28E,35R,36S,37R,38R,40S,42S,45S,46R,47R,57R)-46,57-dihydroxy-45-[(1R)-2-[(1S, 3R,4R)-4-(2-hydroxyethoxy)-3-methoxy-cyclohexyl]-1-methyl-ethyl]-47-methoxy-35, 36,37,38,48,49-hexamethyl-50,51,52,53,54-pentaoxo-69,70-dioxa-58-azatricyclohexatriaconta-23, 25,27(48),28(49)-tetraen-44-yl]oxy]-N,N-dimethyl-butanamide] | YES
1 to 10 nM | CO[C@@H]1CC(C[C@@H](C)C2CC(=O)[C@H](C)/C=C(\C)[C@@H](O)[C@@H](OC)C(=O)[C@H](C)C[C@H](C)/C=C/C=C/C=C(\C)[C@H](OCCOCC(F)(F)F)C[C@@H]3CC[C@@H](C)[C@@](O)(O3)C(=O)C(=O)N3CCCC[C@H]3C(=O)O2)CC[C@H]1OCCO (stereo partly drawn) [I-70, (21E,23E,25E,26E,33R,34S,35R,36R,38S,40S,42S,43R,44R,45R,54R)-44, 54-dihydroxy-43-[(1R)-2-[(1S,3R,4R)-4-(2-hydroxyethoxy)-3-methoxy-cyclohexyl]-1-methyl-ethyl]-45-methoxy-33, 34,35,36,46,47-hexamethyl-42-[2-(2,2,2-trifluoroethoxy)ethoxy]-65, 66-dioxa-56-azatricyclohexatriaconta-21,23,25(46),26(47)-tetraene-48,49,50,51,52-pentone] | YES
< 0.1 nM | CO[C@@H]1CC(C[C@@H](C)C2CC(=O)[C@H](C)/C=C(\C)[C@@H](O)[C@@H](OC)C(=O)[C@H](C)C[C@H](C)/C=C/C=C/C=C(\C)C(OCCOCC(F)(F)F)C[C@@H]3CC[C@@H](C)[C@@](O)(O3)C(=O)C(=O)N3CCCC[C@H]3C(=O)O2)CC[C@H]1OCCO (stereo partly drawn) [I-77, (21E,23E,25E,26E,33R,34S,35R,36R,38S,40S,43S,44R,45R,54R)-44, 54-dihydroxy-43-[(1R)-2-[(1S,3R,4R)-4-(2-hydroxyethoxy)-3-methoxy-cyclohexyl]-1-methyl-ethyl]-45-methoxy-33, 34,35,36,46,47-hexamethyl-42-[2-(2,2,2-trifluoroethoxy)ethoxy]-65,66-dioxa-56-azatricyclohexatriaconta-21, 23,25(46),26(47)-tetraene-48,49,50,51,52-pentone] | YES
0.1 to 1 nM | CO[C@@H]1C[C@H](C[C@@H](C)[C@@H]2CC(=O)[C@H](C)/C=C(\C)[C@@H](O)[C@@H](OC)C(=O)[C@H](C)C[C@H](C)/C=C/C=C/C=C(\C)[C@H](OCCOCCOCC(F)(F)F)C[C@@H]3CC[C@@H](C)[C@@](O)(O3)C(=O)C(=O)N3CCCC[C@H]3C(=O)O2)CC[C@H]1OCCO [I-84] | YES
0.1 to 1 nM | COCCOCCO[C@@H]1C[C@@H]2CC[C@@H](C)[C@@](O)(O2)C(=O)C(=O)N2CCCC[C@H]2C(=O)O[C@H]([C@H](C)C[C@@H]2CC[C@@H](OCCO)[C@H](OC)C2)CC(=O)[C@H](C)/C=C(\C)[C@@H](O)[C@@H](OC)C(=O)[C@H](C)C[C@H](C)/C=C/C=C/C=C/1C [I-104, (22E,24E,26E,27E,35R,36S,37R,38R,40S,42S,44R,45S,46R,47R,56R)-46, 56-dihydroxy-45-[(1R)-2-[(1S,3R, 4R)-4-(2-hydroxyethoxy)-3-methoxy-cyclohexyl]-1-methyl-ethyl]-47-methoxy-44-[2-(2-methoxyethoxy)ethoxy]-35,36,37,38,48,49-hexamethyl-66, 67-dioxa-57-azatricyclohexatriaconta-22,24,26(48),27(49)-tetraene-50,51,52,53,54-pentone] | YES

— patent US11944605B2, “Rapamycin analogs and uses thereof” (Janssen Pharmaceutica NV, priority 2018, dated 2024)
